{
  "source": "paper PMC4510350",
  "about": "(PLoS Neglected Tropical Diseases, 2015)",
  "key": {"B. thailandensis biofilm": {"system": "B. thailandensis biofilm", "format": "cell-based, Burkholderia thailandensis"}, "B. thailandensis (E264)": {"system": "B. thailandensis (E264)", "settings": "pH 7.4"}, "[1]": {"system": "B. thailandensis E264 pre-formed biofilm", "format": "cell-based, Burkholderia thailandensis", "settings": "n = 8"}, "[2]": {"system": "multiple Burkholderia species", "settings": "cited from earlier work"}, "B. pseudomallei": {"system": "B. pseudomallei", "settings": "cited from earlier work"}},
  "note": "Entries after “also recorded” stand apart in the source; their conditions may differ. Where a SMILES comes first, the peptide text is derived from it. Where no end group is shown, it is not given here. [ ]: non-standard residue; d: D form.",
  "data": [
    {"molecule": "GLKLRFEFSKIKGEFLKTPEVRFRDIKLKDNRISVQR [Scrambled LL-37]", "values": [
      {"measurement": "biofilm inhibition", "setting": "B. thailandensis biofilm", "value": "did not inhibit biofilm; also recorded: did not show biofilm inhibition"}
    ]},
    {"molecule": "CC(C)C[C@@H](NC(=O)[C@@H](CCCCN)NC(=O)[C@@H](CCCCN)NC(=O)[C@@H](Cc1ccccc1)NC(=O)[C@@H](Cc1ccccc1)NC(=O)[C@@H](CCCCN)NC(=O)[C@@H](CCCCN)NC(=O)[C@@H](C)NC(=O)[C@@H](CCCNC(=N)N)NC(=O)[C@H](N)CCCCN)C(=O)N[C@H](CCCCN)C(N)=O", "note": "[D-ATRA-1A] (H-[dK][dR][dA][dK][dK][dF][dF][dK][dK][dL][dK]-NH2; N-terminus and C-terminus assumed)", "values": [
      {"measurement": "biofilm inhibition", "setting": "B. thailandensis biofilm", "value": "did slightly, but only at the highest concentration of peptide tested (300 μg/ml); also recorded: Minimal biofilm inhibition"},
      {"measurement": "EC50", "setting": "B. thailandensis (E264); 3 h", "value": 4.82, "unit": "µM"},
      {"measurement": "EC50 (μg/ml)", "setting": "B. thailandensis (E264); 3 h", "value": 6.86, "unit": "µg/mL"},
      {"measurement": "dispersion of pre-formed biofilm", "setting": "[1]", "value": "no biofilm dispersion activity"}
    ]},
    {"molecule": "hBD-3 (GIINTLQKYYCRVRGGRCAVLSCLPKEEQIGKCSTRGRKCCRRKK; ends and bridges not checked; cysteine pairing not given here; UniProt P81534 23-67, looked up)", "values": [
      {"measurement": "LD50 against multiple Burkholderia species", "setting": "[2]", "value": "> 100", "unit": "µg/mL"}
    ]},
    {"molecule": "bactenecin", "values": [
      {"measurement": "antimicrobial activity against B. pseudomallei", "setting": "B. pseudomallei", "value": "antimicrobial against B. pseudomallei"}
    ]},
    {"molecule": "KRAKKFFKKPK [ATRA-2]", "values": [
      {"measurement": "biofilm inhibition", "setting": "B. thailandensis biofilm", "value": "did not inhibit biofilm formation; also recorded: not biofilm inhibition"},
      {"measurement": "dispersion of pre-formed biofilm", "setting": "[1]", "value": "no biofilm dispersion activity"}
    ]},
    {"molecule": "HNP-3", "values": [
      {"measurement": "antimicrobial activity / whether an EC50 could be determined", "setting": "B. thailandensis (E264)", "value": "could not be calculated because the peptide was ineffective"}
    ]},
    {"molecule": "HNP-4 (VCSCRLVFCRRTELRVGNCLIGGVSFTYCCTRV; ends and bridges not checked; cysteine pairing not given here; UniProt P12838 64-96, looked up)", "values": [
      {"measurement": "antimicrobial activity / whether an EC50 could be determined", "setting": "B. thailandensis (E264)", "value": "could not be calculated because the peptide was ineffective"}
    ]},
    {"molecule": "KRFKKFFKKLK [ATRA-1]", "values": [
      {"measurement": "EC50", "setting": "B. thailandensis (E264); 3 h", "value": 6.94, "unit": "µM"}
    ]},
    {"molecule": "RGRKSSRRKK [Peptide 4 of hBD-3]", "values": [
      {"measurement": "antimicrobial activity / whether an EC50 could be determined", "setting": "B. thailandensis (E264)", "value": "could not be calculated because the peptide was ineffective"},
      {"measurement": "killing of B. thailandensis at highest concentration tested", "setting": "B. thailandensis (E264)", "value": 65, "unit": "%"}
    ]},
    {"molecule": "CC(C)(O/N=C(\\C(=O)N[C@@H]1C(=O)N2C(C(=O)[O-])=C(C[n+]3ccccc3)CS[C@H]12)c1csc(N)n1)C(=O)O", "note": "[Ceftazidime]", "values": [
      {"measurement": "biofilm inhibition", "setting": "B. thailandensis biofilm", "value": "did not inhibit biofilm production; also recorded: did not show biofilm inhibition"}
    ]},
    {"molecule": "KRAKKFFKKLK-NH2 [ATRA-1A]", "values": [
      {"measurement": "EC50", "setting": "B. thailandensis (E264); 3 h", "value": 9.83, "unit": "µM"}
    ]}
  ]
}
